Data as given in EP2594271A1, “2-[(3,5-difluoro-3'-methoxy-1,1'-biphenyl-4-yl)amino]nicotinic acid for the treatment of psoriasis” (Almirall, S.A., priority 2011, dated 2013).
“Also recorded” adds a separate entry of the source.

Legend:
[1] = test system: peripheral blood mononuclear cells; test: in vitro assay using peripheral blood mononuclear cells; format: cell-based; settings: compared with leflunomide
[2] = design: species or system mice; settings: mouse, in vivo, ip
epidermal hyperplasia = test: rat model of TPA-induced epidermal hyperplasia; format: in vivo, Wistar rats; settings: rat dorsal skin
Method: A rat model of epidermal hyperplasia was used to test the pharmacological activity of 2-[(3,5-difluoro-3'-methoxy-1,1'-biphenyl-4-yl)amino]nicotinic acid.
Wistar rats (200- 250 g) were obtained from Harland (Sant Feliu de Codines, Spain) and maintained in standard Chow diet with light:dark cycles and allowed to feed ad libitum during all procedures. TPA (12-O-tetradecanoylphorbol-13-acetate) was purchased from Sigma Chemicals and a stock solution of 10 mg/ml was prepared in acetone.
On the morning of day 1, the back of each animal (n=5) was shaved so that at least three 2x2 sq cm nude skin areas were uncovered. Six hours later, 200 µL of acetone (vehicle) or a solution of TPA ([…]) in acetone was applied onto the skin by employing a silicone pad in which three 2x2 sq cm areas had been cut out. Area A received acetone (vehicle), whereas B and C received TPA. Twenty-four hours after TPA application, a solution of the active ingredient 2-[(3,5-difluoro-3'-methoxy-1,1'-biphenyl-4-yl)amino]nicotinic acid (1% in acetone) was applied to area C, whereas the remainder areas received acetone. Treatment continued for 7 days with daily application of 2-[(3,5-difluoro-3'-methoxy-1,1'-biphenyl-4-yl)amino]nicotinic acid or acetone. Six hours after last application, animals were sacrificed and skin was excised and processed for histological examination using H/E staining. Hyperplasia was evaluated following a score of 0 (normal skin thickness, 2-3 layers) to 3 (marked hyperplastic epidermis, >8 cell layers) by a blinded expert pathologist.

psoriasis = settings: 190 subjects with active psoriatic arthritis and psoriasis, 24 weeks; people with mild to moderate psoriasis; cited from earlier work
[3] = topical 1% in acetone, 7 applications, histology day 8

Compound	potency [1]	levels of bilirrubin in plasma [2]	levels of transaminases in plasma [2]	inflammation induced by TPA (dermal) (epidermal hyperplasia; [3])	mixed perivascular mononuclear infiltration (macrophages, lymphocytes and mastocytes) (epidermal hyperplasia; [3])	hyperplasia (histological score 0 to 3) (epidermal hyperplasia; topical once daily application of 1% in acetone for 7 days, H/E staining, day 8)	benefit compared with placebo (psoriasis)
COc1cccc(-c2cc(F)c(Nc3ncccc3C(=O)O)c(F)c2)c1 [2-[(3,5-difluoro-3'-methoxy-1,1'-biphenyl-4-yl)amino]nicotinic acid]	much higher potency than leflunomide	does not show an increase	does not show an increase	counteracts; also recorded: able to reduce epidermal hyperplasia and dermal inflammation	greatly diminished	reverted; also recorded: counteracts; also recorded: able to reduce epidermal hyperplasia	–
Cc1oncc1C(=O)Nc1ccc(C(F)(F)F)cc1 [leflunomide, 4-Isoxazolecarboxamide, 5-methyl-N-[4-(trifluoromethyl)phenyl]-]	–	–	–	–	–	–	only a moderate benefit compared with placebo
